Assay results from PubChem BioAssay (NCI).
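GI50 is the concentration that inhibits growth by half. At the TGI there is no net growth.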

Key:
Assay in all cases: DTP human tumour cell line panel, 384-well format
HCC-2998 colon = system: HCC-2998 colon
SF-268 CNS = system: SF-268 CNS
SK-MEL-2 melanoma = system: SK-MEL-2 melanoma
A498 renal = system: A498 renal
HOP-62 NSCLC = system: HOP-62 NSCLC
MDA-MB-468 breast = system: MDA-MB-468 breast
U251 glioblastoma = system: U251 glioblastoma
PC-3 prostate = system: PC-3 prostate
MALME-3M melanoma = system: MALME-3M melanoma
NCI-H460 NSCLC = system: NCI-H460 NSCLC
BT-549 breast = system: BT-549 breast
SNB-19 CNS = system: SNB-19 CNS
A549 NSCLC = system: A549 NSCLC
OVCAR-3 ovarian = system: OVCAR-3 ovarian
K-562 leukemia = system: K-562 leukemia
NCI-H23 lung = system: NCI-H23 lung
SF-539 CNS = system: SF-539 CNS
SN12C renal = system: SN12C renal
NCI/ADR-RES ovarian = system: NCI/ADR-RES ovarian
LOX IMVI melanoma = system: LOX IMVI melanoma
OVCAR-5 ovarian = system: OVCAR-5 ovarian
CAKI-1 renal = system: CAKI-1 renal
SR leukemia = system: SR leukemia
SK-OV-3 ovarian = system: SK-OV-3 ovarian
NCI-H522 lung = system: NCI-H522 lung

## COc1cnccc1Nc1nc(-c2nn(Cc3c(F)cc(OCCO)cc3F)c3ccccc23)ncc1OC
HCC-2998 colon
  TGI: 4.47 µM
SF-268 CNS
  GI50: 845 nM
  TGI: 2720 nM
SK-MEL-2 melanoma
  GI50: 1540 nM
  TGI: 2880 nM
A498 renal
  GI50: 1190 nM
  TGI: 2430 nM
HOP-62 NSCLC
  GI50: 783 nM
  TGI: 2060 nM
MDA-MB-468 breast
  GI50: 927 nM
  TGI: 2130 nM
U251 glioblastoma
  GI50: 1440 nM
  TGI: 2780 nM
PC-3 prostate
  GI50: 1870 nM
  TGI: 3.36 µM
MALME-3M melanoma
  GI50: 1770 nM
  TGI: 3.2 µM
NCI-H460 NSCLC
  GI50: 1060 nM
  TGI: 2280 nM
BT-549 breast
  GI50: 1440 nM
  TGI: 2800 nM
SNB-19 CNS
  GI50: 1600 nM
  TGI: 3.08 µM
A549 NSCLC
  GI50: 1540 nM
  TGI: 2920 nM
OVCAR-3 ovarian
  GI50: 1610 nM
  TGI: 3.1 µM
K-562 leukemia
  GI50: 1210 nM
  TGI: 2560 nM
NCI-H23 lung
  GI50: 1630 nM
  TGI: 3.15 µM
SF-539 CNS
  GI50: 1450 nM
  TGI: 2760 nM
SN12C renal
  GI50: 1310 nM
  TGI: 2650 nM
NCI/ADR-RES ovarian
  GI50: 1870 nM
  TGI: 3.9 µM
LOX IMVI melanoma
  GI50: 1250 nM
  TGI: 2720 nM
OVCAR-5 ovarian
  GI50: 2860 nM
  TGI: 7.17 µM
CAKI-1 renal
  GI50: 1900 nM
  TGI: 8.3 µM
SR leukemia
  GI50: 261 nM
  TGI: 1250 nM
SK-OV-3 ovarian
  GI50: 1750 nM
  TGI: 3.93 µM
NCI-H522 lung
  GI50: 768 nM
  TGI: 2030 nM
